Assay results reported in article PMC9518264, “Design and synthesis of novel quinazolinone-based derivatives as EGFR inhibitors with antitumor activity” (Journal of Enzyme Inhibition and Medicinal Chemistry, 2022).

Key:
UACC-62 = assay: cells; assay type: cell-based
SNB-75 = assay: cells; assay type: cell-based
BT-549 = assay: cells; assay type: cell-based
NCI/ADR-RES = assay: cells; assay type: cell-based
HCC-2998 = assay: cells; assay type: cell-based
U251 = assay: cells; assay type: cell-based
MOLT-4 = assay: cells; assay type: cell-based
EKVX = assay: cells; assay type: cell-based
SK-MEL-2 = assay: cells; assay type: cell-based
NCI-H460 = assay: cells; assay type: cell-based
UACC-257 = assay: cells; assay type: cell-based
T-47D = assay: cells; assay type: cell-based
SR = assay: cells; assay type: cell-based
[1] = system: panel of 60 tumour cell lines; assay: NCI 60 cell line antiproliferative screening (SRB), whole panel or subpanels (means, ranges, words); assay type: cell-based, human
OVCAR-3 = assay: NCI 60 cell line antiproliferative screening (SRB), Ovarian cancer
MDA-MB-435 = assay: cells; assay type: cell-based
HOP-92 = assay: cells; assay type: cell-based
IGROV1 = assay: cells; assay type: cell-based
HL-60(TB) = assay: cells; assay type: cell-based
SNB-19 = assay: cells; assay type: cell-based
OVCAR-4 = assay: cells; assay type: cell-based
TK-10 = assay: cells; assay type: cell-based
786-0 = assay: cells; assay type: cell-based
[2] = Homo sapiens, 5 doses, read-out: LC50 (the source's name)
[3] = Homo sapiens, read-out: growth inhibition % (GI%)

Structure (SMILES): O=C(CSc1nc2ccccc2c(=O)n1-c1ccc(Cl)cc1)NN=Cc1ccc(Oc2ccc(Cl)cc2)cc1 [6d, N'-(4–(4-chlorophenoxy)benzylidene)-2-((3–(4-chlorophenyl)-4-oxo-3,4-dihydroquinazolin-2-yl)thio)acetohydrazide]
- GI50 (UACC-62; Homo sapiens, UACC-62): 1.59 µM
- inhibition at 10 µM (UACC-62; Homo sapiens, UACC-62, read-out: growth inhibition % (GI%)): 99.6%
- CC50 (UACC-62; Homo sapiens, UACC-62, 5 doses, read-out: LC50 (the source's name)): 6.38 µM
- TGI (UACC-62; UACC-62, 5 doses): 3.18 µM
- GI50 (SNB-75; Homo sapiens, SNB-75): 3.99 µM
- inhibition at 10 µM (SNB-75; Homo sapiens, SNB-75, read-out: growth inhibition % (GI%)): 42.1%
- CC50 (SNB-75; Homo sapiens, SNB-75, 5 doses, read-out: LC50 (the source's name)): > 100 µM
- TGI (SNB-75; SNB-75, 5 doses): 29.2 µM
- TGI (BT-549; BT-549, 5 doses): 12.2 µM
- GI50 (BT-549; Homo sapiens, BT-549): 3.28 µM
- inhibition at 10 µM (BT-549; Homo sapiens, BT-549, read-out: growth inhibition % (GI%)): > 100%
- CC50 (BT-549; Homo sapiens, BT-549, 5 doses, read-out: LC50 (the source's name)): 36.2 µM
- TGI (NCI/ADR-RES; 5 doses): 3.56 µM
- GI50 (NCI/ADR-RES; Homo sapiens): 1.64 µM
- CC50 (NCI/ADR-RES; [2]): 7.76 µM
- inhibition at 10 µM (NCI/ADR-RES; [3]): 84.3%
- TGI (HCC-2998; HCC-2998, 5 doses): 3.81 µM
- GI50 (HCC-2998; Homo sapiens, HCC 2998): 1.92 µM
- inhibition at 10 µM (HCC-2998; Homo sapiens, HCC 2998, read-out: growth inhibition % (GI%)): 79.7%
- LC50 (lethal concentration 50%) (HCC-2998; Homo sapiens, HCC-2998, 5 doses): 7.57 µM
- GI50 (U251; Homo sapiens, U-251): 1.65 µM
- inhibition at 10 µM (U251; Homo sapiens, U-251, read-out: growth inhibition % (GI%)): > 100%
- CC50 (U251; Homo sapiens, U-251, U251, 5 doses, read-out: LC50 (the source's name)): 8.23 µM
- TGI (U251; U251, 5 doses): 3.69 µM
- GI50 (MOLT-4; Homo sapiens, MOLT-4): 2.29 µM
- inhibition at 10 µM (MOLT-4; Homo sapiens, MOLT-4, read-out: growth inhibition % (GI%)): > 100%
- CC50 (MOLT-4; Homo sapiens, MOLT-4, 5 doses, read-out: LC50 (the source's name)): 44.7 µM
- TGI (MOLT-4; MOLT-4, 5 doses): 9.23 µM
- TGI (EKVX; 5 doses): 13.9 µM
- GI50 (EKVX; Homo sapiens): 3.1 µM
- LC50 (EKVX; Homo sapiens, 5 doses): 63.6 µM
- inhibition at 10 µM (EKVX; [3]): 59.2%
- GI50 (SK-MEL-2; Homo sapiens): 2.86 µM
- inhibition at 10 µM (SK-MEL-2; Homo sapiens, SK-MEL-2, read-out: growth inhibition % (GI%)): 45.7%
- CC50 (SK-MEL-2; Homo sapiens, SK-MEL-2, 5 doses, read-out: LC50 (the source's name)): 41.3 µM
- TGI (SK-MEL-2; SK-MEL-2, 5 doses): 8.93 µM
- GI50 (NCI-H460; Homo sapiens, NCI-H460): 0.789 µM
- inhibition at 10 µM (NCI-H460; Homo sapiens, NCI-H460, read-out: growth inhibition % (GI%)): > 100%
- LC50 (concentration killing 50% of cells) (NCI-H460; Homo sapiens, NCI-H460, 5 doses): 7.78 µM
- TGI (NCI-H460; NCI-H460, 5 doses): 2.6 µM
- GI50 (UACC-257; Homo sapiens, UACC-257): 4.62 µM
- inhibition at 10 µM (UACC-257; Homo sapiens, UACC-257, read-out: growth inhibition % (GI%)): 41%
- CC50 (UACC-257; Homo sapiens, UACC-257, 5 doses, read-out: LC50 (the source's name)): > 100 µM
- TGI (UACC-257; UACC-257, 5 doses): 22.5 µM
- GI50 (T-47D; Homo sapiens, T47D): 2.09 µM
- inhibition at 10 µM (T-47D; Homo sapiens, T47D, read-out: growth inhibition % (GI%)): 69.9%
- CC50 (T-47D; Homo sapiens, T47D, T-47D, 5 doses, read-out: LC50 (the source's name)): 49.5 µM
- TGI (T-47D; T-47D, 5 doses): 5.76 µM
- TGI (SR; 5 doses): 6.86 µM
- GI50 (SR; Homo sapiens): 1.84 µM
- CC50 (SR; [2]): 31.9 µM
- inhibition at 10 µM (SR; [3]): 67.1%
- GI50 ([1]; Homo sapiens, 60 cell, read-out: GI50 range against most of the tested cancer cell lines): 1.29 to 5.97 µM
- inhibition at 10 µM ([1]; Homo sapiens, 60 cell, read-out: Mean growth inhibition % (mean GI%)): 80.2%
- TGI range against the rest of cell lines ([1]; five dose concentrations, good to moderate cytostatic activity): 11.1 to 48.5 µM
- TGI range against 40 cancer cell lines ([1]; five dose concentrations, high cytostatic activity): 2.59 to 9.55 µM
- GI50 (OVCAR-3; Homo sapiens, OVCAR-3): 2.75 µM
- CC50 (OVCAR-3; Homo sapiens, OVCAR-3, read-out: LC50): 38.9 µM
- inhibition at 10 µM (OVCAR-3; Homo sapiens, OVCAR-3, read-out: growth inhibition % (GI%)): < 15%
- TGI (OVCAR-3; OVCAR-3, 5 doses): 9.55 µM
- GI50 (MDA-MB-435; Homo sapiens, MDA-MB-435): 1.93 µM
- inhibition at 10 µM (MDA-MB-435; Homo sapiens, MDA-MB-435, read-out: growth inhibition % (GI%)): 75%
- CC50 (MDA-MB-435; Homo sapiens, MDA-MB-435, 5 doses, read-out: LC50 (the source's name)): 13 µM
- TGI (MDA-MB-435; MDA-MB-435, 5 doses): 4.56 µM
- TGI (HOP-92; HOP-92, 5 doses): 5.62 µM
- GI50 (HOP-92; Homo sapiens, HOP-92): 2.07 µM
- inhibition at 10 µM (HOP-92; Homo sapiens, HOP-92, read-out: growth inhibition % (GI%)): 97.4%
- LC50 (concentration killing 50% of cells) (HOP-92; Homo sapiens, HOP-92, 5 doses): 22.8 µM
- GI50 (IGROV1; Homo sapiens, IGROV-1): 1.51 µM
- inhibition at 10 µM (IGROV1; Homo sapiens, IGROV-1, read-out: growth inhibition % (GI%)): 79.4%
- CC50 (IGROV1; Homo sapiens, IGROV-1, IGROV1, 5 doses, read-out: LC50 (the source's name)): 7.12 µM
- TGI (IGROV1; IGROV1, 5 doses): 3.28 µM
- TGI (HL-60(TB); HL-60(TB), 5 doses): 37.0 µM
- GI50 (HL-60(TB); Homo sapiens, HL-60): 16 µM
- inhibition at 10 µM (HL-60(TB); Homo sapiens, HL-60, read-out: growth inhibition % (GI%)): < 15%
- CC50 (HL-60(TB); Homo sapiens, HL-60(TB), 5 doses, read-out: LC50 (the source's name)): 85.7 µM
- GI50 (SNB-19; Homo sapiens, SNB-19): 3.36 µM
- inhibition at 10 µM (SNB-19; Homo sapiens, SNB-19, read-out: growth inhibition % (GI%)): 71.5%
- CC50 (SNB-19; Homo sapiens, SNB-19, 5 doses, read-out: LC50 (the source's name)): 53.2 µM
- TGI (SNB-19; SNB-19, 5 doses): 12.7 µM
- GI50 (OVCAR-4; Homo sapiens, OVCAR-4): 1.89 µM
- inhibition at 10 µM (OVCAR-4; Homo sapiens, OVCAR-4, read-out: growth inhibition % (GI%)): 98.3%
- CC50 (OVCAR-4; Homo sapiens, OVCAR-4, 5 doses, read-out: LC50 (the source's name)): 17.5 µM
- TGI (OVCAR-4; OVCAR-4, 5 doses): 4.57 µM
- GI50 (TK-10; Homo sapiens, TK-10): 5.97 µM
- inhibition at 10 µM (TK-10; Homo sapiens, TK-10, read-out: growth inhibition % (GI%)): 60.3%
- CC50 (TK-10; Homo sapiens, TK-10, 5 doses, read-out: LC50 (the source's name)): > 100 µM
- TGI (TK-10; TK-10, 5 doses): 40.2 µM
- TGI (786-0; 786-0, 5 doses): 6.41 µM
- GI50 (786-0; Homo sapiens, 786-0): 2.51 µM
- inhibition at 10 µM (786-0; Homo sapiens, 786-0, read-out: growth inhibition % (GI%)): > 100%
- CC50 (786-0; Homo sapiens, 786-0, 5 doses, read-out: LC50 (the source's name)): 26.5 µM
